From PubChem BioAssay (NCI)
Where “and” joins values, the source holds several entries; their conditions need not be identical. Equal entries are not always repeated.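 Dose response: 5 concentrations. Exposure: 48 h. Format: 96-well plates. Endpoint: linear interpolation; highest concentration if not reached. GI50 marks 50% less growth. TGI: concentration producing complete growth inhibition.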

Tests used:
Test in all cases: growth of human tumour cells (NCI), 48 h
[1] = system: ACHN renal
[2] = system: HCT-116 colon
[3] = system: NCI-H226 lung
[4] = system: NCI-H522 lung
[5] = system: OVCAR-4 ovarian
[6] = system: SF-539 CNS
[7] = system: SK-MEL-2 melanoma
[8] = system: SR leukemia
[9] = system: UACC-257 melanoma
[10] = system: DMS 273 small cell lung

SMILES	GI50 [1]	TGI [1]	GI50 [2]	TGI [2]	GI50 [3]	TGI [3]	GI50 [4]	TGI [4]	GI50 [5]	TGI [5]	GI50 [6]	TGI [6]	GI50 [7]	TGI [7]	GI50 [8]	TGI [8]	GI50 [9]	TGI [9]	TGI [10]
Oc1c(O)c(Cl)c(Cl)c(Cl)c1Cl	5.15 µM	35.5 µM	2.88 µM	8.75 µM	4.62 µM	24.3 µM	1.65 µM	4.54 µM	2.44 µM	8.86 µM	3.72 µM	14.7 µM	4.1 µM	15.2 µM	2.73 µM	> 100 µM	2.92 µM	9.6 µM	–
C1CC2=C(C1)C1=S(S2)SC2=C1CCC2	–	> 100 µM	–	> 100 µM	–	> 100 µM	–	> 100 µM	–	> 100 µM	–	> 100 µM	–	> 100 µM	–	–	–	> 100 µM	> 100 µM
CCN(CC)c1ccc(/C=N/NC(=O)CSc2nc3ccccc3c(=O)n2Cc2ccc(S(N)(=O)=O)cc2)c(O)c1	1.58 µM	> 100 µM	0.363 µM	> 100 µM	0.895 µM	> 100 µM	2.4 µM	> 100 µM	0.311 µM	> 100 µM	1.26 µM	> 100 µM	2.41 µM	> 100 µM	0.212 µM	> 100 µM	3.03 µM	> 100 µM	–
Cc1ccccc1N=Nc1c(-c2ccccc2)nn(C(=O)CC(=O)Nc2cccc(Cl)c2)c1-c1ccccc1	–	> 31.6 µM	–	17.8 µM	–	> 31.6 µM	–	–	–	> 31.6 µM	–	> 31.6 µM	–	26 µM	–	20.3 µM	–	2.58 µM	> 31.6 µM
C=C1C(=O)O[C@H]2[C@H]1CC/C(COC(=O)NCCc1cccc(OC)c1)=C\CC[C@@]1(C)O[C@@H]21	1.12 µM	2.58 µM	0.714 µM	2.08 µM	1.57 µM	3.6 µM	1.02 µM	2.69 µM	1.78 µM	4.37 µM	1.49 µM	2.96 µM	1.73 µM	3.65 µM	0.511 µM	2.86 µM	1.53 µM	3.4 µM	–
COc1ccc(-c2nn3ncccc3c2-c2ccnc(Nc3ccc4c(c3)OCCO4)n2)cc1	2.86 µM	> 25 µM	8.16 µM	> 25 µM	5.51 µM	> 25 µM	5.56 µM	23 µM	9.19 µM	> 25 µM	13 µM	> 25 µM	7.39 µM	> 21 µM	16.1 µM	> 25 µM	9.07 µM	> 25 µM	–
Cc1cccc(Nc2cc(Cl)nc(SCC(=O)O)n2)c1C	–	> 100 µM	–	> 100 µM	–	> 100 µM	–	> 100 µM	–	> 100 µM	–	> 100 µM	–	> 100 µM	–	> 100 µM	–	> 100 µM	–
C/C(=N\NC(N)=S)c1sc(-n2nc(-c3ccccc3)cc2-c2ccccc2)nc1C	–	> 100 µM	–	> 100 µM	–	> 100 µM	–	> 100 µM	–	> 100 µM	–	> 100 µM	–	> 100 µM	–	> 100 µM	–	> 100 µM	–
CC1(C)C(=O)C(=Cc2ccco2)C1=O	–	> 100 µM	–	> 100 µM	–	> 100 µM	–	> 100 µM	–	> 100 µM	–	> 100 µM	–	> 100 µM	–	> 100 µM	–	> 100 µM	–
C=C(CO)CC(/C=C(\C)CC/C=C(\C)CCl)OC(C)=O (centres undefined)	–	> 100 µM	–	> 100 µM	–	> 100 µM	–	> 100 µM	–	> 100 µM	–	> 100 µM	–	> 100 µM	–	–	–	–	> 100 µM
COc1ccc2c(c1)CCc1c(CO)c(COC(=O)NC(C)C)n(C)c1-2	–	53.1 µM	–	11.6 µM	–	14.6 µM	–	14.4 µM	–	53.5 µM	–	> 87 µM	–	58 µM	–	–	–	27.1 µM	41.4 µM
S=C(CSc1ccccc1)Nc1cccc2ccccc12	–	> 100 µM	–	> 100 µM	–	> 100 µM	–	> 100 µM	–	> 100 µM	–	76.4 µM	–	74.5 µM	–	68.8 µM	–	68.3 µM	–
Cn1cc(C2=C(c3ccccc3C(F)(F)F)C(=O)NC2=O)c2ccccc21	8.06 µM	> 25 µM	6.59 µM	> 25 µM	7.07 µM	> 24.2 µM	11.6 µM	> 25 µM	9.64 µM	> 25 µM	11.1 µM	> 25 µM	8.11 µM	> 24 µM	6.36 µM	> 22.2 µM	9.59 µM	> 22.5 µM	–
CNCCCNc1c2ccccc2nc2cccc([N+](=O)[O-])c12	–	0.0152 µM	–	0.017 µM and 0.0108 µM	–	0.0521 µM	–	0.0022 µM	–	0.00543 µM	–	0.0163 µM and 0.0172 µM	–	0.00798 µM	–	–	–	0.0495 µM	0.0465 µM
OC(COc1ccccc1)CN1CCCCC1 (centres undefined)	–	> 100 µM	–	> 100 µM	–	> 100 µM	–	> 100 µM	–	> 100 µM	–	> 100 µM	–	> 100 µM	–	> 100 µM	–	> 100 µM	–
O=c1c2cccnc2ncn1CCCN1CCCC1	–	> 100 µM	–	> 100 µM	–	> 100 µM	–	> 100 µM	–	> 100 µM	–	> 100 µM	–	> 100 µM	–	> 100 µM	–	–	> 100 µM
COc1cc2c(c(OC)c1OC)-c1ccc(SC)c(=O)cc1C(CC(=O)Oc1cccc(F)c1)C2 (centres undefined)	–	> 100 µM	–	1.06 µM	–	0.794 µM	–	0.241 µM	–	> 100 µM	–	0.387 µM	–	9.57 µM	–	1.47 µM	–	> 100 µM	–
COc1cc(Nc2ncnc(Nc3ccc4c(n3)NC(=O)C(C)(C)O4)n2)cc(OC)c1OC	0.16 µM	23.7 µM	3.95 µM	> 100 µM	0.297 µM	> 100 µM	0.625 µM	11.2 µM	–	> 100 µM	0.23 µM	0.673 µM	> 100 µM	> 100 µM	2.24 µM	> 100 µM	3.26 µM	> 100 µM	–
